This is an account of results in US11214803B2, “Modulators of YAP1 expression” (Ionis Pharmaceuticals, Inc., priority 2019, dated 2022).

Series [1] is described as follows: Tolerability in Sprague-Dawley rats, plasma chemistry markers (Example 21). In kind it is in vivo. Particulars: male Sprague-Dawley rats, 50 mg/kg s.c. weekly for 6 weeks (7 doses), 48 hours after last dose. The method, then: Sprague-Dawley rats are a multipurpose model used for safety and efficacy evaluations. The rats were treated with Ionis modified oligonucleotides from the studies described in the Examples above and evaluated for changes in the levels of various plasma chemistry markers.

For series [2] the following is noted: rat, in vivo, sc, 50 mg/kg.
Description: Male Sprague-Dawley rats were maintained on a 12-hour light/dark cycle and fed ad libitum with Purina normal rat chow. Groups of 4 Sprague-Dawley rats each were weekly injected subcutaneously with 50 mg/kg of Ionis oligonucleotide for 6 weeks (total 7 doses). Forty-eight hours after the last dose, the rats were euthanized; and organs, urine and plasma were harvested for further analysis.
To evaluate the effect of Ionis oligonucleotides on kidney function, urinary levels of total protein and creatinine were measured using an automated clinical chemistry analyzer (Hitachi Olympus AU400c, Melville, N.Y.).

Marks after values point to notes of the source that are not given here.

As for “1198439 (AGTGTATGTCAGAAGA; sugar, 5-methylcytosine, phosphorothioate modifications, further chemistry not given here) [compound 1198439]”, in series [1], the ALT is 54* U/L, the AST is 94* U/L, the BUN is recorded as 22* mg/dL and the TBIL is given as 0.15* mg/dL. Moreover, the “URINE P/C ratio (total protein to creatinine ratio)” value in series [2] is recorded as 8*.

Consider “1198440 (AAGTGTATGTCAGAAG; cEt, 2'-MOE, 5-methylcytosine, phosphorothioate modifications, further chemistry not given here) [compound 1198440]”, for which, in series [1], the ALT is 58** U/L, the AST is reported as 108** U/L, the BUN is on record as 20** mg/dL and the TBIL is 0.17** mg/dL. Further, the “URINE P/C ratio (total protein to creatinine ratio)” value in series [2] stood at 9.
